Measured values: patent US8343991B2, “Anhydrous crystalline vinflunine salts, method of preparation and use thereof as a drug and means of vinflunine purification” (Pierre Fabre Medicament, priority 2007, dated 2013)

Legend:
[1] = Comparative stability of amorphous ditartrate and crystalline fumarate, powder form, HPLC analysis; format: physicochemical; conditions: for degradation in powder form: 14 days
Experimental: Comparative stability of amorphous ditartrate and crystalline fumarate:
1. Raw material: • Batch OP3.0B: amorphous vinflunine ditartrate. • Batch JLM4008400: crystalline vinflunine fumarate.
(§1) 2. Stability conditions: • Stability studies are carried out on the powder form away from light under the following conditions: • closed bottle: 50° C., • open bottle: 40° C., 75% relative humidity. • A measurement is taken at T0 and at T0+14 days.
3. Analytical conditions: • HPLC system: • Column: Sunfire C18, 5 μm, 4.6×250 mm (Waters) temperature maintained at 35° C. • Eluent: CH3CN/MeOH/H2O/KH2PO4 400/150/450/6.8 (ml/ml/ml/g) adjusted to pH 7 (with KOH). • Flow rate: 1 ml/min • Detection: 269 nm

[2] = Water content of the powder in the comparative stability study; format: physicochemical
Experimental: as §1

[3] = T0 + 14 d, 40° C., 75% RH, open bottle, powder away from light
[4] = T0 + 14 d, 50° C., closed bottle, powder away from light
[5] = in the presence of moisture (40° C., 75% RH)
[6] = T0 + 14 d, 40° C., 75% RH, open bottle

| Substance | degradation in powder form ([1]; 50° C. (closed bottle)) | HPLC analysis [1, 3] [%] | HPLC analysis [1, 4] [%] | HPLC analysis ([1]; T0, powder, before storage) [%] | degradation in powder form [1, 5] | Water content ([2]; T0) [%] | Water content [2, 6] [%] |
| --- | --- | --- | --- | --- | --- | --- | --- |
| vinflunine ditartrate [OP3.OB] | 2.1% | 98.21 | 97.18 | 99.28 | 1.07% | 6.27 | 10.18 |
| vinflunine fumarate [JLM4008400] | less than 0.2% | 99.38 | 99.56 | 99.52 | less than 0.2% | 1.33 | 4.18 |
